Measured values as given in paper PMC9884962, “Pigments of aminophenoxazinones and viridomycins produced by termite-associated Streptomyces tanashiensis BYF-112” (Frontiers in Microbiology, 2023).
Converted amounts (≈) assume the structure as drawn. “And” between values parts separate entries of the source, which are not always exact repeats. Identical values can stand only once. Like-named read-outs stand apart in the source and are kept apart here.

Key:
Type in all cases: cell-based
[1] = test system: human malignant melanoma cell line (A375); experiment: MTT cytotoxicity assay, A375; conditions: A-375, 48 h exposure, read-out: Cytotoxic activity IC50, A375
Experimental: (§1) The metabolites 1–4 were evaluated for their cytotoxic activities against human malignant melanoma cell line (A375), human ovarian cancer cell line (SKOV-3), human breast cancer cell line (MDA-MB231), human gastric cancer cell line (MGC-803) and human normal cell line (L-02) with the MTT method ([Wang et al., 2022]). The cell lines were maintained in Dulbecco’s modified eagle medium (DMEM) supplemented with 10% fetal bovine serum (FBS) along with 1% penicillin and streptomycin. Cells were grown at 37°C in an atmosphere with 5% CO2 and then seeded in 96-well plates and permitted to grow for 20 h. Then tested compounds at preset concentrations were added. The 3-(4,5-dimethylthiazol-2-yl)-2,5-diphenyltetrazolium bromide (MTT; 20 μl, 5 mg/ml) was added into each well after a 48 h exposure period. After an additional 4 h further incubation, the medium was replaced by DMSO (150 μl), then shaking the plates for 15 min. The absorbance at 490 nm were recorded. The percentage of cell viability was calculated using the following formula: Cell viability (%) = the OD of tested group/the OD of CK × 100%. Finally, IC50 values were determined by EXCEL. The azithromycin was used as positive control.

[2] = test system: human breast cancer cell line (MDA-MB231); experiment: MTT cytotoxicity assay, MDA-231; conditions: MDA-MB-231, 48 h exposure, read-out: Cytotoxic activity IC50, MDA-231
Experimental: as §1

[3] = test system: human gastric cancer cell line (MGC-803); experiment: MTT cytotoxicity assay, MGC-803; conditions: 48 h exposure, read-out: Cytotoxic activity IC50, MGC-803
Experimental: as §1

[4] = MTT cytotoxicity assay, L-02; conditions: human, L-02 normal liver cells, 48 h exposure, normal cell line, read-out: Cytotoxic activity IC50, L-02
Experimental: as §1

[5] = test system: human ovarian cancer cell line (SKOV-3); experiment: MTT cytotoxicity assay, SKOV-3; conditions: SK-OV-3, 48 h exposure, read-out: Cytotoxic activity IC50, SKOV-3
Experimental: as §1

[6] = test system: methicillin-resistant S. aureus (MRSA, SA2); experiment: Minimum inhibitory concentration assay, MRSA
Experimental: (§2) The Staphylococcus aureus (ATCC6538), methicillin-resistant S. aureus (MRSA, SA2), Escherichia coli (ATCC8739) and Micrococcus tetragenus (ATCC35098) donated by Professor Ting Xue from Anhui Agricultural university were used as a target pathogen for the examination of antibacterial activity of the metabolites. The disc diffusion ([Özogul et al., 2022]) and minimum inhibitory concentrations (MICs; [Cui et al., 2022]) methods were performed to evaluate the antibacterial activities of the new natural metabolites 1, 2, and 4. Filter paper disks (6 mm) with metabolite dissolved in DMSO in a concentration (30 μg/filter paper) were added to the culture medium, and the plates were incubated at 37°C for 12 h. Filter papers with DMSO and levofloxacin were set as negative and positive controls, respectively. All experiments were performed in triplicate, and data were shown as mean values standard deviation. And the MICs of the compounds were determined by the method as we previously described ([Cui et al., 2022]).

[7] = test system: Staphylococcus aureus (ATCC6538); experiment: Minimum inhibitory concentration assay, S. aureus; conditions: for MIC: Staphylococcus aureus, ATCC6538
Experimental: as §2

[8] = test system: methicillin-resistant S. aureus (MRSA, SA2); experiment: Filter paper disc diffusion, MRSA; conditions: 30 μg/filter paper (6 mm disc), 37°C, 12 h, dash = No inhibited
Experimental: as §2

[9] = test system: Staphylococcus aureus (ATCC6538); experiment: Filter paper disc diffusion, S. aureus; conditions: 30 μg/filter paper (6 mm disc), 37°C, 12 h, dash = No inhibited
Experimental: as §2

[10] = test system: Escherichia coli (ATCC8739); experiment: Filter paper disc diffusion, E. coli; conditions: 30 μg/filter paper (6 mm disc), 37°C, 12 h; dash = No inhibited
Experimental: as §2

[11] = test system: Micrococcus tetragenus (ATCC35098); experiment: Filter paper disc diffusion, M. tetragenus; conditions: 30 μg/filter paper (6 mm disc), 37°C, 12 h, dash = No inhibited
Experimental: as §2

[12] = test system: Micrococcus tetragenus (ATCC35098); experiment: Minimum inhibitory concentration assay, M. tetragenus; conditions: for MIC: Micrococcus, ATCC35098
Experimental: as §2

[13] = test system: Escherichia coli (ATCC8739); experiment: Minimum inhibitory concentration assay, E. coli
Experimental: as §2

[14] = test system: human cancer cell lines (A375, SKOV-3, MDA-231 and MGC-803); experiment: MTT cytotoxicity assay, tested human cancer cell lines together; conditions: range over A375, SKOV-3, MDA-231 and MGC-803, read-out: IC50 values against the tested human cancer cell lines
Experimental: as §1

[15] = Staphylococcus aureus, MRSA; read-out: Minimum inhibitory concentration (MIC), MRSA

## CC[C@H]1OC(=O)[C@H](C)[C@@H](O[C@H]2C[C@@](C)(OC)[C@@H](O)[C@H](C)O2)[C@H](C)[C@@H](O[C@@H]2O[C@H](C)C[C@H](N(C)C)[C@H]2O)[C@](C)(O)C[C@@H](C)CN(C)[C@H](C)[C@@H](O)[C@]1(C)O [Azithromycin, azithromycin, reference compound]
[1]
  IC50: 0.79 ± 0.13 µM
[2]
  IC50: 4.03 ± 0.43 µM
[3]
  IC50: 1.57 ± 0.03 µM
[4]
  IC50 at 48 h: 7.34 ± 1.15 µM
[5]
  IC50: 0.41 ± 0.12 µM

## Nc1cc2nc3cc(CO)ccc3oc-2cc1=O [Compound 1, 2-amino-8-hydroxymethyl-3H-phenoxazin-3-one]
[1]
  IC50: 67.7 ± 4.31 µM
[2]
  IC50: 55.9 ± 7.47 µM
[3]
  IC50: 50.2 ± 7.01 µM
[6]; [15]
  MIC: 25 µg/mL (≈ 103 µM)
[7]
  Minimum inhibitory concentration (MIC), Staphylococcus aureus: 12.5 µg/mL (≈ 51.6 µM)
  MIC: 12.5 µg/mL (≈ 51.6 µM)
[4]
  IC50 at 48 h: 72 ± 7.22 µM
[8]
  Zone of inhibition (ZOI), MRSA: 15.3 mm and 15.3 ± 0.1 mm
[9]
  Zone of inhibition (ZOI), Staphylococcus aureus: 17.2 mm and 17.2 ± 0.2 mm
[10]
  Zone of inhibition (ZOI), Escherichia coli: –^b
[11]
  Zone of inhibition (ZOI), Micrococcus tetragenus: 15.3 mm and 15. mm and 15.3 ± 0.2 mm
[5]
  IC50: 22.3 ± 3.78 µM
[12]
  MIC: 12.5 µg/mL (≈ 51.6 µM)
[13]
  MIC: > 100 µg/mL
[14]
  IC50: 22.3 to 67.7 µM

## CC(=O)OCc1ccc2oc3cc(=O)c(N)cc-3nc2c1 [Compound 2, exfoliazone B]
[1]
  IC50: > 100 µM
[2]
  IC50: > 100 µM
[3]
  IC50: 69.9 ± 1.94 µM
[6]; [15]
  MIC: > 100 µg/mL
[7]
  MIC: > 100 µg/mL
[4]
  IC50 at 48 h: > 100 µM
[8]
  Zone of inhibition (ZOI), MRSA: –^b
[9]
  Zone of inhibition (ZOI), Staphylococcus aureus: –^b
[10]
  Zone of inhibition (ZOI), Escherichia coli: –^b
[11]
  Zone of inhibition (ZOI), Micrococcus tetragenus: –^b
[5]
  IC50: 75.8 ± 5.77 µM
[12]
  MIC: 50 µg/mL (≈ 176 µM)
[13]
  MIC: > 100 µg/mL

## CC(=O)Nc1cc(CNc2cc3nc4cc(CO)ccc4oc-3cc2=O)ccc1O [Compound 3, exfoliazone C]
[1]
  IC50: > 100 µM
[2]
  IC50: > 100 µM
[3]
  IC50: > 100 µM
[4]
  IC50 at 48 h: > 100 µM
[5]
  IC50: > 100 µM

## CC(=O)OCc1ccc2oc3cc(=O)c(NC4OC(CO)C(O)C(O)C4O)cc-3nc2c1 (centres unmarked) [Compound 4, exfoliazoneglycoside]
[1]
  IC50: > 100 µM
[2]
  IC50: > 100 µM
[3]
  IC50: > 100 µM
[6]; [15]
  MIC: > 100 µg/mL
[7]
  MIC: > 100 µg/mL
[4]
  IC50 at 48 h: > 100 µM
[8]
  Zone of inhibition (ZOI), MRSA: –^b
[9]
  Zone of inhibition (ZOI), Staphylococcus aureus: –^b
[10]
  Zone of inhibition (ZOI), Escherichia coli: –^b
[11]
  Zone of inhibition (ZOI), Micrococcus tetragenus: –^b
[5]
  IC50: > 100 µM
[12]
  MIC: > 100 µg/mL
[13]
  MIC: > 100 µg/mL

## C[C@H]1COc2c(N3CCN(C)CC3)c(F)cc3c(=O)c(C(=O)O)cn1c23 [Levofloxacin, levofloxacin, reference compound]
[6]; Staphylococcus aureus, MRSA, read-out: Minimum inhibitory concentration (MIC), MRSA
  MIC: 6.25 µg/mL (≈ 17.3 µM)
[7]
  MIC: 3.13 µg/mL (≈ 8.66 µM)
[8]
  Zone of inhibition (ZOI), MRSA: 15.2 ± 0.1 mm
[8]; listed as levofloxacin
  Zone of inhibition (ZOI), MRSA: 15.2 mm
[9]
  Zone of inhibition (ZOI), Staphylococcus aureus: 28.9 ± 0.8 mm
[9]; listed as levofloxacin
  Zone of inhibition (ZOI), Staphylococcus aureus: 28.9 mm
[10]
  Zone of inhibition (ZOI), Escherichia coli: 33.0 ± 1.0 mm
[11]
  Zone of inhibition (ZOI), Micrococcus tetragenus: 24.8 ± 0.6 mm
[11]; listed as levofloxacin
  Zone of inhibition (ZOI), Micrococcus tetragenus: 24.8 mm
[12]
  MIC: 3.13 µg/mL (≈ 8.66 µM)
[13]
  MIC: 3.13 µg/mL (≈ 8.66 µM)

## gentamycin sulfate [reference compound]
[6]
  Minimum inhibitory concentration (MIC), MRSA: 6.25 µg/mL
[7]
  Minimum inhibitory concentration (MIC), Staphylococcus aureus: 3.13 µg/mL
[12]
  Minimum inhibitory concentration (MIC), Micrococcus tetragenus: 3.13 µg/mL
